Laboratory results: patent publication US12172992B2, “Pyrimidines for degrading Bruton's tyrosine kinase” (AbbVie Inc., priority 2022, dated 2024)

Key:
BTK in mouse bone marrow = BTK in mouse bone marrow (Mus musculus (Mouse), UniProt P35991); assay: Mouse Bone Marrow Assay (MSD ELISA of BTK degradation in bone marrow); assay type: in vivo; conditions: female C57BL/6J mice, single dose of Dose A, bone marrow collected after 24 hours
Experimental: Female C57BL/6J mice (Jackson Laboratories) were used for this study. Compounds or vehicle/control were prepped with EtOH; PEG-400; Phosal 53 MCT (10:30:60, v/v). Four mice were tested per compound or vehicle/control. On Day 1, mice were administered a single dose of Dose A. On Day 2 (after 24 hours), tissue (bone marrow) was collected from one hind leg per mouse.
An MSD (Meso Scale Discovery) ELISA (enzyme-linked immunosorbent assay) based assay was used to determine BTK degradation in mouse bone marrow. The following materials and equipment were used: 10% NP40 solution (nonionic polyoxyethylene surfactant, ThermoFisher, cat no. 28324); protease inhibitor mini tablet (Roche, cat no. 05 892 970 001); PhosphoSTOP™ tablet (Roche, cat no. 04 906 837 001); Pierce™ BCA Protein Assay Kit (Thermofisher, Cat No. 23225); Precellys® 2 mL lysing tube with 2.8 mm beads (VWR, cat no. 10032-756); Bertin Precellys® 24/Cryolys® cooling system; 96-well MSD streptavidin pre-coated plates (MSD, cat no. L15SA-1); MSD Blocker A (MSD, cat no. R93BA-4); capture antibody, biotinylated BTK mAb (BD Biosciences, cat no. 624008; custom order); primary detection antibody, BTK RpAb (rabbit polyclonal antibody, CST, cat no. 8547S, D3H5 clone); secondary detection antibody, anti-Rabbit-Sulfo-Tag (MSD, cat no. R32AB-1); read Buffer, 4× (MSD, cat no. R92TC-1); recombinant BTK protein (Thermofisher, cat no. PR5442A); MSD Tris Wash Buffer (10×) (MSD, cat no. R61TX-1); PBS (phosphate-buffered saline); deionized water (diH2O); Lysis Buffer [0.2% NP40 in PBS+Protease Inhibitor tablet (1 tablet/10 mL)+PhosphoSTOP tablet (1 tablet/10 mL)]; 3% MSD Blocker A [MSD Blocker A+450 mL diH2O+50 mL]; and 10×MSD Tris Wash Buffer.
Lysis buffer [(PBS+0.2% NP40+PI (protease inhibitor)+PhosphoSTOP)] was prepared and put on ice until it was fully cold. Ice cold lysis buffer […] was added to each Precellys® tube containing beads and bone marrow sample. Sample tubes were transferred into Precellys® machine and homogenized using 5000 rpm—2×20 seconds. The sample lysates were centrifuged at 14,000 rpm for 20 minutes at 4° C. after homogenizing.
The protein concentration was determined using Pierce™ BCA Protein Assay Kit following manufacturer's recommended protocol. The protein normalized working solution was prepared, using 30 μg protein per sample lysate for assay.
A 300 ng/ml working stock solution of recombinant BTK protein in lysis buffer was prepared, and the sample was serially diluted at 3-fold dilution (10-point assay, highest concentration was 300 ng/mL and lowest concentration was 0.015 ng/mL)
MSD plate coating: Coating antibody (biotinylated-BTK mAb) stock solution was prepared at 1 μg/mL in PBS buffer. 50 μL/well capture antibody (Biotinylated BTK mAb) solution was added, and the plates were shaken gently at ambient temperature for two hours. The plates were washed 3 times with 1×MSD Tris Wash Buffer in a plate washer (300 μL/well), and the plates were blocked with 3% MSD Blocker A (150 μL/well). The plates were incubated for an additional 1-2 hours at ambient temperature with gentle shaking. The plates were washed 3 times with 1×MSD wash buffer using plate washer. Bone marrow lysates (30 μg) at a final volume of 50 μL/well were added into the plates. The serially diluted standard samples were added to the same plates at a final volume of 50 μL/well. The plates were incubated overnight at 4° C. with gentle shaking.
The plates were washed three times with 1×MSD wash buffer (prepared from 10× concentration buffer) using plate washer. Primary detection antibody at 50 μL/well was added (BTK RpAb; 1:1000 dilution in 1% MSD Blocker A). The plates were incubated for two hours at ambient temperature with gentle shaking. The plates were washed three times with 1×MSD wash buffer using plate washer. Anti-Rabbit-SULFO-TAG secondary antibodies (50 μl/well) were added, 1:500 diluted in 1% MSD Blocker A, and the plates were incubated for one to two hours at ambient temperature. […]

[1] = biological target: BTK protein in human whole blood (Homo sapiens (Human), UniProt Q06187); assay: Btk protein in human whole blood MSD ELISA based assay (BTK degradation); assay type: cell-based; conditions: 6 hours, maximum BTK degradation compared to DMSO only treated samples, read-out: hWB BTK dMax (%)
Sequence of BTK protein in human whole blood (Q06187 whole entry): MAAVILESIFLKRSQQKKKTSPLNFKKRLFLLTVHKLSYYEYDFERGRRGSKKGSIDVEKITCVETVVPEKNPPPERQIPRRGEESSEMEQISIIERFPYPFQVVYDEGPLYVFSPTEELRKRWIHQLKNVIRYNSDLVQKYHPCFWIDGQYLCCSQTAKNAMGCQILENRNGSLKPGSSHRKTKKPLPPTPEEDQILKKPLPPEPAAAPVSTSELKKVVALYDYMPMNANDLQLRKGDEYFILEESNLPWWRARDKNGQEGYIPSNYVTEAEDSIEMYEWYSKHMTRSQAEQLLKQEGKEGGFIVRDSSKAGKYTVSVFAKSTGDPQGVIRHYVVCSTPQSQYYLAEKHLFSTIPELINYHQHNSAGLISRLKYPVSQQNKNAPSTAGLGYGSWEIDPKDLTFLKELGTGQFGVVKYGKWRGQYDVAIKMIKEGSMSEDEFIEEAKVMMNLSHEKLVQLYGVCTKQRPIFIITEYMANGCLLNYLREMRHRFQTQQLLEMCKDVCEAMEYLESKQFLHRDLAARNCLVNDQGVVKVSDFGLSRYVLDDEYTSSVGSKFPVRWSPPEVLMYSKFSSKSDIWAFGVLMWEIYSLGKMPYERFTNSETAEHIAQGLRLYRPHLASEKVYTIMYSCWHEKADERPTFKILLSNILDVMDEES

Sequence of BTK in mouse bone marrow (P35991 whole entry): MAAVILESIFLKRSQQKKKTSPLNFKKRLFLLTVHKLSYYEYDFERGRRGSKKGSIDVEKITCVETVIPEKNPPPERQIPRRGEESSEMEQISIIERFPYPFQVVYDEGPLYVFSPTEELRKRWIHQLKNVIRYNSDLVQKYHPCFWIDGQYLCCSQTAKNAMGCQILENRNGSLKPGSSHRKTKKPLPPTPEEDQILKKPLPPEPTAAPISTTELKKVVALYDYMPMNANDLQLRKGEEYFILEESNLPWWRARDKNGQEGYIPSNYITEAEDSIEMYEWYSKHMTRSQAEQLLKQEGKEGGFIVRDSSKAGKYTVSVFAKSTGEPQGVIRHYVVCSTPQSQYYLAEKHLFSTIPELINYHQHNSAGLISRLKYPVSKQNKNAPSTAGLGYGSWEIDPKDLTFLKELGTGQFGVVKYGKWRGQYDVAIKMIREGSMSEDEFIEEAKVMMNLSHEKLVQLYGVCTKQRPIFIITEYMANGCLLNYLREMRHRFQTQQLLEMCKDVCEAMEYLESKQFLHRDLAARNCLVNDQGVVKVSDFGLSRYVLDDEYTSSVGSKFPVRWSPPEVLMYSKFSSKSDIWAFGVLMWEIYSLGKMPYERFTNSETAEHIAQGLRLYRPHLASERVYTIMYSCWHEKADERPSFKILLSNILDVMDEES

Mouse Bone Marrow (%) (% remaining BTK, vehicle versus treated) (BTK in mouse bone marrow): 11%
Dmax [1]: 100%
Compound: Cc1cc(-c2cc(Nc3ccc(N4CCN(CCc5ccc(N6CCC(=O)NC6=O)cc5)C[C@@H]4C)cn3)ncn2)ccc1[C@@H](C)NC(=O)c1nc(C(C)(C)C)no1 [Example 1, 3-tert-butyl-N-[(1R)-1-{4-[6-({5-[(2S)-4-{2-[4-(2,4-dioxo-1,3-diazinan-1-yl)phenyl]ethyl}-2-methylpiperazin-1-yl]pyridin-2-yl}amino)pyrimidin-4-yl]-2-methylphenyl}ethyl]-1,2,4-oxadiazole-5-carboxamide]
